ChEMBL document CHEMBL4804281, “STK4 inhibitors for treatment of hematologic malignancies” (2020)
Calls of active or inactive are those of the source. The calls are words filed in the database; no cut-off is given here.

How the values were obtained:
NCI-H929 [1] = assay: Upregulation of YAP1 protein level in human NCI-H929 cells at 3 to 10 uM measured after 72 hrs by Western blot analysis; type: functional, cell-based; details: dose 3-10 µM
MM1.S = assay: Induction of apoptosis in human MM1.S cells assessed as necrotic cells measured after 48 hrs by annevxinV/FITC-propidium iodide staining based flow cytometry (reference value: 0.19 %); type: functional
NCI-H929 [2] = assay: Upregulation of BAX protein level in human NCI-H929 cells at 1 uM measured after 24 hrs by Western blot analysis; type: functional, cell-based
[3] = target: Mitogen-activated protein kinase kinase kinase 2 (Homo sapiens) (UniProt Q9Y2U5); assay: Inhibition of MAP3K2 in human NCI-H929 cells at 10 uM by mass spectroscopic analysis relative to control; type: cell-based
[4] = target: Calcium/calmodulin-dependent protein kinase type II subunit gamma (Homo sapiens) (UniProt Q13555); assay: Inhibition of CAMK2G in human NCI-H929 cells at 10 uM by mass spectroscopic analysis relative to control; type: cell-based
[5] = target: Dual specificity mitogen-activated protein kinase kinase 7 (Homo sapiens) (UniProt O14733); assay: Inhibition of MAP2K7 in human NCI-H929 cells at 10 uM by mass spectroscopic analysis relative to control; type: cell-based
[6] = target: Cyclin-G-associated kinase (Homo sapiens) (UniProt O14976); assay: Inhibition of GAK in human NCI-H929 cells at 10 uM by mass spectroscopic analysis relative to control; type: cell-based
[7] = target: 1-phosphatidylinositol 3-phosphate 5-kinase (Homo sapiens) (UniProt Q9Y2I7); assay: Inhibition of PIP5K3 in human NCI-H929 cells at 10 uM by mass spectroscopic analysis relative to control; type: cell-based
[8] = target: Dual specificity mitogen-activated protein kinase kinase 4 (Homo sapiens) (UniProt P45985); assay: Inhibition of MAP2K4 in human NCI-H929 cells at 10 uM by mass spectroscopic analysis relative to control; type: cell-based
[9] = target: Casein kinase I isoform gamma-3 (Homo sapiens) (UniProt Q9Y6M4); assay: Inhibition of CK1g3 in human NCI-H929 cells at 10 uM by mass spectroscopic analysis relative to control; type: cell-based
[10] = target: Mitogen-activated protein kinase kinase kinase 21 (Homo sapiens) (UniProt Q5TCX8); assay: Inhibition of MLK4 in human NCI-H929 cells at 10 uM by mass spectroscopic analysis relative to control; type: cell-based
Chain of Mitogen-activated protein kinase kinase kinase 21 (Homo sapiens) (Q5TCX8 whole entry): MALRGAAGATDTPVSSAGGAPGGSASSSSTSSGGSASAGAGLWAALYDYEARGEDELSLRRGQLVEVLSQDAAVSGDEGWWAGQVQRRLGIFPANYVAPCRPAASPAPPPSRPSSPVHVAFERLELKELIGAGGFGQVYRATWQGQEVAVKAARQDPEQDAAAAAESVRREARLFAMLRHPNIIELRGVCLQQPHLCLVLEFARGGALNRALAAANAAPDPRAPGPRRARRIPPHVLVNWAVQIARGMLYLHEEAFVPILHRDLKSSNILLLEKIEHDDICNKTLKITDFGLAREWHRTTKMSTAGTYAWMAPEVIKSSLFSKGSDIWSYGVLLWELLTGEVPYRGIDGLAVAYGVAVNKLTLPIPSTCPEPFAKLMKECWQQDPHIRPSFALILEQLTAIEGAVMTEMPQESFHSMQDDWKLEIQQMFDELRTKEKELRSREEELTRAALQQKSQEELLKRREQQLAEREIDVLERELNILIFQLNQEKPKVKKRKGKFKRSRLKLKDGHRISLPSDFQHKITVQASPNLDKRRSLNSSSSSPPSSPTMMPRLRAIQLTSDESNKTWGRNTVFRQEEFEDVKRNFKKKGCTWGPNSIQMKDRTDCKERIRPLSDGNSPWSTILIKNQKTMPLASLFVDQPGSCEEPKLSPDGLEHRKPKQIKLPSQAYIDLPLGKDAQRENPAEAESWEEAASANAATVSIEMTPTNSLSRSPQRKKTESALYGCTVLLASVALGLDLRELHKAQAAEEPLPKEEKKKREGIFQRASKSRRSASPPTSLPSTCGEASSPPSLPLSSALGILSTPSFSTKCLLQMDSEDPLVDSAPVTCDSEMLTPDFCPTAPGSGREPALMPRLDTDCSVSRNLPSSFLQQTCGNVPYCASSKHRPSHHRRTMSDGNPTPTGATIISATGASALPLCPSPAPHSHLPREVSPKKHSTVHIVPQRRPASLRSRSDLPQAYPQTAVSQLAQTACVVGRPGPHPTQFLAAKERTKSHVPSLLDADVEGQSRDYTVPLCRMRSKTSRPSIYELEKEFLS

Chain of Casein kinase I isoform gamma-3 (Homo sapiens) (Q9Y6M4 whole entry, looked up, canonical isoform): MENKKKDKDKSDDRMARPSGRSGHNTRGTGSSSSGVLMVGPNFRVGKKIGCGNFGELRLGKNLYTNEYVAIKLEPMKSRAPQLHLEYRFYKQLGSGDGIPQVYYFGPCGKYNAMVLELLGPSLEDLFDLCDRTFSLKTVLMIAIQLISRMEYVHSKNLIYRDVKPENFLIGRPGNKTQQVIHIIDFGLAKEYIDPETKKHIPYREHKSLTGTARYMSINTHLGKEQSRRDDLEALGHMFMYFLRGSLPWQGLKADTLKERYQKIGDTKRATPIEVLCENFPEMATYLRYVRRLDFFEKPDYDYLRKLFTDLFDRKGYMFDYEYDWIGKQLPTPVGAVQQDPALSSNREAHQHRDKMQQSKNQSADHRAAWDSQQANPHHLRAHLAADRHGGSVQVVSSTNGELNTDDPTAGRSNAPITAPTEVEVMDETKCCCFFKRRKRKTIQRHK
Chain of Mitogen-activated protein kinase kinase kinase 2 (Homo sapiens) (Q9Y2U5 whole entry): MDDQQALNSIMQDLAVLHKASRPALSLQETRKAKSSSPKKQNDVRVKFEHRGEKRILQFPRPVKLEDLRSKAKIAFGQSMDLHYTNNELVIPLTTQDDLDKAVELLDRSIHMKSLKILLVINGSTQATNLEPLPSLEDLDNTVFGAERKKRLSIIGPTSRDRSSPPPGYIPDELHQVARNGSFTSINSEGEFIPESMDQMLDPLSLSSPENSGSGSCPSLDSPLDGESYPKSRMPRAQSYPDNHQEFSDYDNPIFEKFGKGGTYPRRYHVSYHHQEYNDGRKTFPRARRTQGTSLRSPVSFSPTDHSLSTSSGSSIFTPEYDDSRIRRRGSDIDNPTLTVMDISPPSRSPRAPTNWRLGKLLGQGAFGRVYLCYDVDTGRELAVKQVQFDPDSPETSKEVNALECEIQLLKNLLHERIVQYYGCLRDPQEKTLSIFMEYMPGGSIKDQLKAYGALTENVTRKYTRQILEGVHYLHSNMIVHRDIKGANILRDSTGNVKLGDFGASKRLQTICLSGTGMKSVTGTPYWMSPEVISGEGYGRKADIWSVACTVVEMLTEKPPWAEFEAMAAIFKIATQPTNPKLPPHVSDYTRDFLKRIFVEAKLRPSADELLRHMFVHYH
Chain of 1-phosphatidylinositol 3-phosphate 5-kinase (Homo sapiens) (Q9Y2I7 whole entry): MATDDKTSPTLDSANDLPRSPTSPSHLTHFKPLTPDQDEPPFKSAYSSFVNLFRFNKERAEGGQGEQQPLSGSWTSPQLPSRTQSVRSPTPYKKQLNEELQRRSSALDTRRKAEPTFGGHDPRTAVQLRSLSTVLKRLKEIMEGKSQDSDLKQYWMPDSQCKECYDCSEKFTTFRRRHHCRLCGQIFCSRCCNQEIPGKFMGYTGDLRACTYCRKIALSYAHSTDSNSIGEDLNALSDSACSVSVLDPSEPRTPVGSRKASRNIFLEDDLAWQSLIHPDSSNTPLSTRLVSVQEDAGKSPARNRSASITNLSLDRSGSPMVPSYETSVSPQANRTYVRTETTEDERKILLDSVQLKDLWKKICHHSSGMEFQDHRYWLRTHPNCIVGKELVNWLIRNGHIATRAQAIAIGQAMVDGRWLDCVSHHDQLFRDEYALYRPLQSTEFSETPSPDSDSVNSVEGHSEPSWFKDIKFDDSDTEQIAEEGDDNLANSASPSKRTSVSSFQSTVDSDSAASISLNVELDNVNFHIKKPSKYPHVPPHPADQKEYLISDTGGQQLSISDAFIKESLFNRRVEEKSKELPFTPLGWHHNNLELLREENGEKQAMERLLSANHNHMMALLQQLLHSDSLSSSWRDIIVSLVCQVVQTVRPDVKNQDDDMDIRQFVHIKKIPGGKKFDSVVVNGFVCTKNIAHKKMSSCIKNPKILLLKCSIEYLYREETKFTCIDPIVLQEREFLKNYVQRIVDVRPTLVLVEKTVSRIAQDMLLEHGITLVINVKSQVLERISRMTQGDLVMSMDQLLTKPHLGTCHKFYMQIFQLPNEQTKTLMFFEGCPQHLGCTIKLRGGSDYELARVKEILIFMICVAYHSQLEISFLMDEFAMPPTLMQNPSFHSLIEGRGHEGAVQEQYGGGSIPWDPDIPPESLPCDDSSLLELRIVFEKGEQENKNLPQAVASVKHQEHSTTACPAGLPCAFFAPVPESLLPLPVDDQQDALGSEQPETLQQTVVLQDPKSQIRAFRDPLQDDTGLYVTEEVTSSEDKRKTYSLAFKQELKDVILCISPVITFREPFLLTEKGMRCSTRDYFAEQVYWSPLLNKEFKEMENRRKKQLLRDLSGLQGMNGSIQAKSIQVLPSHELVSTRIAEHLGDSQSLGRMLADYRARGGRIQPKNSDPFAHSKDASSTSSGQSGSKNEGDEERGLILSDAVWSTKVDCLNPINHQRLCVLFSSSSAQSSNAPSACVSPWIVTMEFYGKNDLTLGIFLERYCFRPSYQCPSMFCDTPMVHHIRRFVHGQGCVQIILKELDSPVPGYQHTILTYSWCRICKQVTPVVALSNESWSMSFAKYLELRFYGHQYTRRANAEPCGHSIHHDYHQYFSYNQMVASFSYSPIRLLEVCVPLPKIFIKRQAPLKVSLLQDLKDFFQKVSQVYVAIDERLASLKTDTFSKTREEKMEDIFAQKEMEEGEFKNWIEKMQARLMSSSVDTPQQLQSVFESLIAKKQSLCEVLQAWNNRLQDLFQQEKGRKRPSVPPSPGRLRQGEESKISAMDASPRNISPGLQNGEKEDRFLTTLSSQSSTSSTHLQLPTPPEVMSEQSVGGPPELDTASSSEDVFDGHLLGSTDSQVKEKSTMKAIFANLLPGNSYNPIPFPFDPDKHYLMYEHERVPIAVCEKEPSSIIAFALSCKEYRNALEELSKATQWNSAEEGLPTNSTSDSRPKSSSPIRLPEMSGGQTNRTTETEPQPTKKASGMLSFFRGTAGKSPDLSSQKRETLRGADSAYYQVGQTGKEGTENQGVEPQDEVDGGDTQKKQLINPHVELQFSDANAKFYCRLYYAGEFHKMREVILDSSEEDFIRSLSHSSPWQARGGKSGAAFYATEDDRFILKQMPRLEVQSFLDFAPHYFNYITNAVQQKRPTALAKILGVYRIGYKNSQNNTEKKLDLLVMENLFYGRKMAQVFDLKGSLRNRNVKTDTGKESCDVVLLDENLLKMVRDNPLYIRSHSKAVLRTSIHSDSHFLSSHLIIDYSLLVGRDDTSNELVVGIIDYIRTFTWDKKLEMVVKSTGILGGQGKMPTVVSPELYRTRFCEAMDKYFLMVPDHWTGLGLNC
Chain of Dual specificity mitogen-activated protein kinase kinase 7 (Homo sapiens) (O14733 whole entry): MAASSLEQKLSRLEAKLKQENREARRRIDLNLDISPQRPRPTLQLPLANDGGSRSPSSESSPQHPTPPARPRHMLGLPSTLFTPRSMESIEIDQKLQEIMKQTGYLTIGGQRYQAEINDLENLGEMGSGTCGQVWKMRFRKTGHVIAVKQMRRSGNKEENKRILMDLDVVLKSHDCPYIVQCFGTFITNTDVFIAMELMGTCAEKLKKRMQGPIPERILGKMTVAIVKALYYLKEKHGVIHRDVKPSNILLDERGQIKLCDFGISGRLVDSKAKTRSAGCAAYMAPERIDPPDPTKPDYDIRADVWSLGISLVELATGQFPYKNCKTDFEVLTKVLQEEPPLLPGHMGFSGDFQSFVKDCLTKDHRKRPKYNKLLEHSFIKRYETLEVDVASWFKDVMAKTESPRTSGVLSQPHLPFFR
Chain of Dual specificity mitogen-activated protein kinase kinase 4 (Homo sapiens) (P45985 whole entry, canonical isoform): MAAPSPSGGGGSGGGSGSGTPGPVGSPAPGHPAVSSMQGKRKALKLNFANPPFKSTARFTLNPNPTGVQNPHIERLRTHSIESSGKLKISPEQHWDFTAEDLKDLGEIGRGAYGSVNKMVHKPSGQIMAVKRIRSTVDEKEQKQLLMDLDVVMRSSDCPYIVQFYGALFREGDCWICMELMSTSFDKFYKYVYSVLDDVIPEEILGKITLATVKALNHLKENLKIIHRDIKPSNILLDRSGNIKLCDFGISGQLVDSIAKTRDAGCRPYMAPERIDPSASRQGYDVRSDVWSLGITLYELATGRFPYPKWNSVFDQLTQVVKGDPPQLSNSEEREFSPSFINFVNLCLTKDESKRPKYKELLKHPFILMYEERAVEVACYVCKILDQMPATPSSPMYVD

In the case of `Nc1ncc(-c2cccc([N+](=O)[O-])c2F)cc1-c1ccc2c(c1)CCNC2=O`, the Activity (NCI-H929 [1]) is reported as “inactive”, the Activity (MM1.S) is reported as 29.41% and the Activity (NCI-H929 [2]) is reported as “Active”. The inhibition [3] was < 50%.

`COc1cc(NS(=O)(=O)C2CC2)ccc1-c1cnc(N)c(-c2ccc3c(c2)CCNC3=O)c1` showed an inhibition [4] of 75%, an inhibition [5] of 75% and an inhibition [6] of 50%. The inhibition [7] was 0%, the inhibition [8] was 0% and the inhibition [9] was 0%.

Compound `Nc1ncc(-c2ccc(NS(=O)(=O)C3CC3)cc2OC2CCCCC2)cc1-c1ccc2c(c1)CCNC2=O` has an inhibition [10] of 50%.
